Reference: patent US8541588B2, “Sulfonamide derivatives” (Pfizer Limited, priority 2009, dated 2013)
pIC50: −log10 of the molar value.

What follows are molecules tested against T1, Nav1.7 (or SCN9A) channel; HEK cells stably transfected with hSCN9A (Homo sapiens, UniProt Q15858) (assay: Nav1.7 block, PatchXpress 7000 automated whole-cell voltage clamp, estimated IC50 (EIC50)). Settings: estimated IC50; hSCN9A HEK cells, PatchXpress platform; Examples 283-814.
T1 construct: expressed in transfected cells
Type: cell-based

T1 sequence (Q15858 whole entry): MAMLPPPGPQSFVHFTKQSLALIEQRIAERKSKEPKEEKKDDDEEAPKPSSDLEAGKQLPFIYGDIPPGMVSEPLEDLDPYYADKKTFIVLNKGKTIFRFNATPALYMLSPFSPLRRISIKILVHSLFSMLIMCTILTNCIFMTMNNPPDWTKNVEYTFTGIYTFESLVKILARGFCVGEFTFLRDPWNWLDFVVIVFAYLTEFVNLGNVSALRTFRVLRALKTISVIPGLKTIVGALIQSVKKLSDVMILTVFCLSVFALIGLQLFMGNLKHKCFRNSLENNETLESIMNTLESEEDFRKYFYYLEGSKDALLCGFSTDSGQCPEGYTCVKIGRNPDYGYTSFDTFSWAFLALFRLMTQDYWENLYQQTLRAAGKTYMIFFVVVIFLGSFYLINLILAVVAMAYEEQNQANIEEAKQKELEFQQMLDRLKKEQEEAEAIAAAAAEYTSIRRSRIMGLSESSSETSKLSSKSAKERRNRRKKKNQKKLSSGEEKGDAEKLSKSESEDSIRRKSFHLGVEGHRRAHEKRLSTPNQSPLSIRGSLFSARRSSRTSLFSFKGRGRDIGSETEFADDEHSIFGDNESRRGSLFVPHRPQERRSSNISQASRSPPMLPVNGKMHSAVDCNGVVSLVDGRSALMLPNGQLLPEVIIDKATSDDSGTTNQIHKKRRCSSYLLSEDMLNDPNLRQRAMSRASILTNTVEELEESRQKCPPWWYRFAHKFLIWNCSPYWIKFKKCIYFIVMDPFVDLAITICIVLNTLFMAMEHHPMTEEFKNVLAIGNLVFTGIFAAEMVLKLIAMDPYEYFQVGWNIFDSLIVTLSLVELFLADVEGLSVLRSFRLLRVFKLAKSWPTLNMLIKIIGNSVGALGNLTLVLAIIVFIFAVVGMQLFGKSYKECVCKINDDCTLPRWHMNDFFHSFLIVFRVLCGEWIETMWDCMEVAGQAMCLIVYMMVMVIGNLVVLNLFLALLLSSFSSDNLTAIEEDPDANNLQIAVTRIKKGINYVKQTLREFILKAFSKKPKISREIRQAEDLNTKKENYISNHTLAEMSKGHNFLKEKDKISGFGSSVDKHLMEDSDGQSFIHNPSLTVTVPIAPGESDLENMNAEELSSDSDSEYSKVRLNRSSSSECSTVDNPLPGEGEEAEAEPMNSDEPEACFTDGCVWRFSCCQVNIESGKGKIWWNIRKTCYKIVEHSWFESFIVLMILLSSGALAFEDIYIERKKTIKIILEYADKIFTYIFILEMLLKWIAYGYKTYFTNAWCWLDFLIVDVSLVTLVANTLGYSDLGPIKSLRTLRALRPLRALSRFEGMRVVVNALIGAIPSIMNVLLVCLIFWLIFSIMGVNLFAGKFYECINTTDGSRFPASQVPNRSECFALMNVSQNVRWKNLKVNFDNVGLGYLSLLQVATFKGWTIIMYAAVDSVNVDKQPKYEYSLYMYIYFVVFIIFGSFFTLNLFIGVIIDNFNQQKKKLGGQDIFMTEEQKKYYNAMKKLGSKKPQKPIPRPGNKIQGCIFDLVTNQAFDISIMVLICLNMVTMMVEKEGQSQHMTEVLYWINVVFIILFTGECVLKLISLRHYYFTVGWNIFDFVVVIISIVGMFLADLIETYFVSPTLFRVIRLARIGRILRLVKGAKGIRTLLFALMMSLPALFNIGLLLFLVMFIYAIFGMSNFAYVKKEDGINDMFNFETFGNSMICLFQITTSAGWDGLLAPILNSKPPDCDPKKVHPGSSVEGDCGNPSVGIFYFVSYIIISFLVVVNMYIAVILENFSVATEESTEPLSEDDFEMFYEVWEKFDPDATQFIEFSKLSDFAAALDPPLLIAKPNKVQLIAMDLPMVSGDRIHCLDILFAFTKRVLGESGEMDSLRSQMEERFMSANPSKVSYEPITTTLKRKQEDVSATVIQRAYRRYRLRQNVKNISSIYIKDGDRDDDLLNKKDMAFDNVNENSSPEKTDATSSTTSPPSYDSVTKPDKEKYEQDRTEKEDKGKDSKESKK

Row | pIC50 | IC50 | SMILES
1 | 4.96 | – | N#Cc1cc(S(=O)(=O)Nc2ncn[nH]2)ccc1Oc1ccccc1-c1ccccc1 [Example 431, 4-(biphenyl-2-yloxy)-3-cyano-N-1H-1,2,4-triazol-5-ylbenzenesulfonamide]
2 | 4.82 | – | N#Cc1ccnc(NS(=O)(=O)c2ccc(Oc3ccccc3-c3ccccc3)c(C#N)c2)n1 [Example 433, 4-(biphenyl-2-yloxy)-3-cyano-N-(4-cyanopyrimidin-2-yl)benzenesulfonamide]
3 | 5.89 | – | Cn1nccc1-c1ccc(Oc2ccc(S(=O)(=O)Nc3nccs3)cc2C#N)cc1 [Example 436, 3-cyano-4-[4-(1-methyl-1H-pyrazol-5-yl)phenoxy]-N-1,3-thiazol-2-ylbenzenesulfonamide]
4 | 6.02 | – | Cn1nccc1-c1cc(C#N)ccc1Oc1cc(F)c(S(=O)(=O)Nc2ncc(Cl)s2)cc1F [Example 441, N-(5-chloro-1,3-thiazol-2-yl)-4-[4-cyano-2-(1-methyl-1H-pyrazol-5-yl)phenoxy]-2,5-difluorobenzenesulfonamide]
5 | 5.00 | – | N#Cc1cc(S(=O)(=O)Nc2nccs2)ccc1Oc1cccc(-c2ccn[nH]2)c1 [Example 444, 3-cyano-4-[3-(1H-pyrazol-5-yl)phenoxy]-N-1,3-thiazol-2-ylbenzenesulfonamide]
6 | – | >1000 nM | Cn1nccc1-c1cccc(Oc2ccc(S(=O)(=O)Nc3nccs3)cc2C#N)c1 [Example 445, 3-cyano-4-[3-(1-methyl-1H-pyrazol-5-yl)phenoxy]-N-1,3-thiazol-2-ylbenzenesulfonamide]
7 | 5.64 | – | N#Cc1cc(S(=O)(=O)Nc2nccs2)ccc1Oc1ccc(Cl)c(-c2ccn[nH]2)c1 [Example 446, 4-[4-chloro-3-(1H-pyrazol-5-yl)phenoxy]-3-cyano-N-1,3-thiazol-2-ylbenzenesulfonamide]
8 | 5.74 | – | N#Cc1cc(S(=O)(=O)Nc2nccs2)ccc1Oc1cccc(-c2cc(C(F)(F)F)ccn2)c1 [Example 447, 3-cyano-N-1,3-thiazol-2-yl-4-{3-[4-(trifluoromethyl)pyridin-2-yl]phenoxy}benzenesulfonamide]
9 | 5.70 | – | N#Cc1cc(S(=O)(=O)Nc2nccs2)ccc1Oc1cccc(-c2cccc(C(F)(F)F)n2)c1 [Example 448, 3-cyano-N-1,3-thiazol-2-yl-4-{3-[6-(trifluoromethyl)pyridin-2-yl]phenoxy}benzenesulfonamide]
10 | 5.64 | – | Cc1cccnc1-c1ccc(Oc2ccc(S(=O)(=O)Nc3nccs3)cc2C#N)cc1 [Example 455, 3-cyano-4-[4-(3-methylpyridin-2-yl)phenoxy]-N-1,3-thiazol-2-ylbenzenesulfonamide]
11 | 7.82 | – | N#Cc1cc(S(=O)(=O)Nc2nccs2)ccc1Oc1ccc(C(F)(F)F)cc1-c1cn[nH]c1 [Example 460, 4-(2-(1H-pyrazol-4-yl)-4-(trifluoromethyl)phenoxy)-3-cyano-N-(thiazol-2-yl)benzenesulfonamide]
12 | 4.66 | – | Cn1nccc1-c1cc(Cl)ccc1Oc1ccc(S(=O)(=O)Nc2ncc(C#N)cn2)cc1C#N [Example 463, 4-[4-chloro-2-(1-methyl-1H-pyrazol-5-yl)phenoxy]-3-cyano-N-(5-cyanopyrimidin-2-yl)benzenesulfonamide]
13 | 5.22 | – | Cn1nccc1-c1cc(Cl)ccc1Oc1ccc(S(=O)(=O)Nc2ncc(Cl)cn2)cc1C#N [Example 464, 4-[4-chloro-2-(1-methyl-1H-pyrazol-5-yl)phenoxy]-N-(5-chloropyrimidin-2-yl)-3-cyanobenzenesulfonamide]
14 | 4.44 | – | Cn1nccc1-c1cc(Cl)ccc1Oc1ccc(S(=O)(=O)Nc2ccc(C#N)cn2)cc1C#N [Example 466, 4-[4-chloro-2-(1-methyl-1H-pyrazol-5-yl)phenoxy]-3-cyano-N-(5-cyanopyridin-2-yl)benzenesulfonamide]
15 | 5.57 | – | Cc1cn(C(F)F)nc1-c1ccc(Oc2ccc(S(=O)(=O)Nc3nccs3)cc2C#N)cc1 [Example 471, 3-cyano-4-{4-[1-(difluoromethyl)-4-methyl-1H-pyrazol-3-yl]phenoxy}-N-1,3-thiazol-2-ylbenzenesulfonamide]

More lines, now with the values behind:

Row | SMILES | pIC50 | IC50
16 | N#Cc1cnc(NS(=O)(=O)c2ccc(Oc3ccccc3-c3ccccc3)c(C#N)c2)nc1 [Example 432, 4-(biphenyl-2-yloxy)-3-cyano-N-(5-cyanopyrimidin-2-yl)benzenesulfonamide] | – | >10000 nM
17 | N#Cc1cc(S(=O)(=O)Nc2nccc(C(F)(F)F)n2)ccc1Oc1ccccc1-c1ccccc1 [Example 434, 4-(biphenyl-2-yloxy)-3-cyano-N-[4-(trifluoromethyl)pyrimidin-2-yl]benzenesulfonamide] | 4.74 | –
18 | Cn1nccc1-c1cc(C(F)(F)F)ccc1Oc1ccc(S(=O)(=O)Nc2ncns2)cc1C#N [Example 437, 3-cyano-4-[2-(1-methyl-1H-pyrazol-5-yl)-4-(trifluoromethyl)phenoxy]-N-1,2,4-thiadiazol-5-ylbenzenesulfonamide] | 7.25 | –
19 | COc1cc(-c2cc(Cl)ccc2Oc2ccc(S(=O)(=O)Nc3nccs3)cc2C#N)n(C)n1 [Example 439, 4-[4-chloro-2-(3-methoxy-1-methyl-1H-pyrazol-5-yl)phenoxy]-3-cyano-N-1,3-thiazol-2-ylbenzenesulfonamide] | 6.31 | –
20 | Cn1nccc1-c1cc(C(F)(F)F)ccc1Oc1ccc(S(=O)(=O)Nc2nccs2)cc1C#N [Example 440, 3-cyano-4-[2-(1-methyl-1H-pyrazol-5-yl)-4-(trifluoromethyl)phenoxy]-N-1,3-thiazol-2-ylbenzenesulfonamide] | 7.77 | –
21 | Cn1nccc1-c1cc(Cl)ccc1Oc1ccc(S(=O)(=O)Nc2ccccn2)cc1C#N [Example 442, 4-[4-chloro-2-(1-methyl-1H-pyrazol-5-yl)phenoxy]-3-cyano-N-pyridin-2-ylbenzenesulfonamide] | 5.89 | –
22 | Cn1nccc1-c1ccc(Oc2ccc(S(=O)(=O)Nc3nccs3)cc2C#N)cc1Cl [Example 443, 4-[3-chloro-4-(1-methyl-1H-pyrazol-5-yl)phenoxy]-3-cyano-N-1,3-thiazol-2-ylbenzenesulfonamide] | 5.74 | –
23 | N#Cc1cc(S(=O)(=O)Nc2nccs2)ccc1Oc1cccc(-c2ccccn2)c1 [Example 449, 3-cyano-4-(3-pyridin-2-ylphenoxy)-N-1,3-thiazol-2-ylbenzenesulfonamide] | 5.51 | –
24 | Cc1ccnc(-c2ccc(Oc3ccc(S(=O)(=O)Nc4nccs4)cc3C#N)cc2)c1 [Example 450, 3-cyano-4-[4-(4-methylpyridin-2-yl)phenoxy]-N-1,3-thiazol-2-ylbenzenesulfonamide] | 5.47 | –
25 | COc1cccc(-c2ccc(Oc3ccc(S(=O)(=O)Nc4nccs4)cc3C#N)cc2)n1 [Example 451, 3-cyano-4-[4-(6-methoxypyridin-2-yl)phenoxy]-N-1,3-thiazol-2-ylbenzenesulfonamide] | – | >1000 nM
26 | N#Cc1cc(S(=O)(=O)Nc2nccs2)ccc1Oc1ccc(-c2cccc(C(F)(F)F)n2)cc1 [Example 453, 3-cyano-N-1,3-thiazol-2-yl-4-{4-[6-(trifluoromethyl)pyridin-2-yl]phenoxy}benzenesulfonamide] | 5.77 | –
27 | N#Cc1cc(S(=O)(=O)Nc2nccs2)ccc1Oc1ccc(-c2nccc(C(F)(F)F)n2)cc1 [Example 454, 3-cyano-N-1,3-thiazol-2-yl-4-{4-[4-(trifluoromethyl)pyrimidin-2-yl]phenoxy}benzenesulfonamide] | – | >1000 nM
28 | N#Cc1cc(S(=O)(=O)Nc2nccs2)ccc1Oc1ccc(-c2ncccc2Cl)cc1 [Example 456, 4-[4-(3-chloropyridin-2-yl)phenoxy]-3-cyano-N-1,3-thiazol-2-ylbenzenesulfonamide] | 5.72 | –
29 | N#Cc1cc(S(=O)(=O)Nc2nccs2)ccc1Oc1ccc(-c2ncccc2C(F)(F)F)cc1 [Example 457, 3-cyano-N-1,3-thiazol-2-yl-4-{4-[3-(trifluoromethyl)pyridin-2-yl]phenoxy}benzenesulfonamide] | 5.70 | –
30 | N#Cc1cc(S(=O)(=O)Nc2ncns2)cc(F)c1Oc1ccc(F)cc1-c1ccn[nH]1 [Example 459, 3-cyano-5-fluoro-4-[4-fluoro-2-(1H-pyrazol-5-yl)phenoxy]-N-1,2,4-thiadiazol-5-ylbenzenesulfonamide] | 6.08 | –
31 | N#Cc1cc(S(=O)(=O)Nc2nccs2)ccc1Oc1ccc(Br)cc1-c1ccn[nH]1 [Example 461, 4-[4-bromo-2-(1H-pyrazol-5-yl)phenoxy]-3-cyano-N-1,3-thiazol-2-ylbenzenesulfonamide] | 7.70 | –
32 | Cn1nccc1-c1cc(Cl)ccc1Oc1ccc(S(=O)(=O)Nc2ncc(C(F)(F)F)cn2)cc1C#N [Example 462, 4-[4-chloro-2-(1-methyl-1H-pyrazol-5-yl)phenoxy]-3-cyano-N-[5-(trifluoromethyl)pyrimidin-2-yl]benzenesulfonamide] | 4.29 | –
33 | Cn1nccc1-c1cc(Cl)ccc1Oc1ccc(S(=O)(=O)Nc2ncc(F)cn2)cc1C#N [Example 465, 4-[4-chloro-2-(1-methyl-1H-pyrazol-5-yl)phenoxy]-3-cyano-N-(5-fluoropyrimidin-2-yl)benzenesulfonamide] | 6.00 | –
34 | Nc1[nH]ncc1-c1cc(Cl)ccc1Oc1cc(F)c(S(=O)(=O)Nc2ncc(Cl)s2)cc1F [Example 467, 4-[2-(5-amino-1H-pyrazol-4-yl)-4-chlorophenoxy]-N-(5-chloro-1,3-thiazol-2-yl)-2,5-difluorobenzenesulfonamide] | 8.02 | –
35 | Cn1nccc1-c1cc(C(F)(F)F)ccc1Oc1cc(F)c(S(=O)(=O)Nc2ncns2)cc1F [Example 468, 2,5-difluoro-4-[2-(1-methyl-1H-pyrazol-5-yl)-4-(trifluoromethyl)phenoxy]-N-1,2,4-thiadiazol-5-ylbenzenesulfonamide] | 7.54 | –
36 | N#Cc1cc(S(=O)(=O)Nc2nccs2)ccc1Oc1ccc(-n2cccn2)cc1 [Example 469, 3-cyano-4-[4-(1H-pyrazol-1-yl)phenoxy]-N-1,3-thiazol-2-ylbenzenesulfonamide] | 5.48 | –
37 | Cc1cn(C)nc1-c1ccc(Oc2ccc(S(=O)(=O)Nc3nccs3)cc2C#N)cc1 [Example 470, 3-cyano-4-[4-(1,4-dimethyl-1H-pyrazol-3-yl)phenoxy]-N-1,3-thiazol-2-ylbenzenesulfonamide] | 5.47 | –
